# Reference: patent US7933647B2, “Methods of increasing lipolysis” (Transfert Plus, S.E.C., priority 2005, dated 2011)
# Legend:
# adipocytes [1] = test: Adipocyte lipolysis measured by glycerol release from isolated adipocytes (Examples I-II); type: cell-based, human; settings: isoproterenol 10^-4 M, 30 minutes
# Experimental: Tissue samples. Adipose tissues were obtained from 11 pre-menopaused women, aged under 45, who were undergoing liposuction or an aesthetic surgery in the supra-iliac region. Adipocyte isolation. The adipose tissues were first placed in Krebs buffer and transported to the laboratory. Fragments of fresh adipose tissue were then incubated in a collagenase type II solution (reconstituted in Krebs buffer, 5 mg of collagenase per gm of tissue; Sigma) for 30 minutes at 37° C. under agitation (100 rpm) in a controlled atmosphere (95% O2, 5% CO2) (Rodbell, 1964). After the incubation period, the cellular suspension was filtered through a 250 μm nylon mesh and separated from the stromal and vascular fraction by flotation. […] Adipocytes were counted using a Neubauer hemacytometer using trypan blue dye. […] Because free fatty acids can be re-esterified Inside the adipocyte while glycerol is not, lipolysis was evaluated by measuring the release of glycerol. Glycerol was indirectly measured by assessing the formation of NADH produced during its enzymatic transformation. NADH was measured using a spectrophotometer (Pharmacia LKB-Novaspec), at a wavelength of 340 nm. Results are expressed as μmol of glycerol released per 10^6 adipocytes per 30 minutes. […] The mean and standard deviation were calculated.
# adipocytes [2] = test: Adipocyte lipolysis in the biphasic electrical stimulation study, adipocytes from 4 women (Example III); type: cell-based, human; settings: suprailiac adipocytes of 4 women aged 40-52; non significant level (FIG. 2)
# Experimental: It was tested if biphasic electrical stimulation can induce lipolysis in adipocyte. 4 women between 40-52 years of age were used as subject. Adipose tissue was obtained from suprailiac areas through liposuction. It is disclosed that isoproterenol (ISO) increased adipocyte lipolysis by 15% i.e. at a non significant level (FIG. 2). […] Moreover, the 4 mA biphasic stimulation increased basal lipolysis by 1.8 x thus at a lower level than the 6 mA stimulation.
compound,measurement,setting,value
CC(C)NCC(O)c1ccc(O)c(O)c1 (stereo not drawn) [isoproterenol],Increase of adipocyte lipolysis compared to control values (BASAL),adipocytes [1],2.6 fold
same,Mean glycerol released (lipolysis),"adipocytes [1]; 37° C., N=11 individuals, BASAL mean 1.4",3.7 μM of glycerol
same,Increase of adipocyte lipolysis,adipocytes [2],15%
